Experimental data as given in patent US8993604B2, “Treatment and prevention of dengue virus infections” (Siga Technologies, Inc., priority 2009, dated 2015).
Like-named read-outs stand apart in the source and are kept apart here.

Tested on: Dengue-2 (Strain New Guinea C)
Assay: Viral yield assay in Vero cells
Type: cell-based
Details: Dengue virus, read-out: Activity (anti-dengue 2 viral activity, EC50 class)
Experimental: Compounds that were active in the primary screen were tested for activity in viral yield assays. […] Vero cells in 12-well plates were infected with dengue-2 virus at a multiplicity of infection (MOI) of 0.1, treated with compound (or DMSO as a control), incubated at 37° C., harvested 48 hours post infection and titered on Vero cells as described above. The EC50 was calculated through ExcelFit. Activities against other serotypes of dengue virus were determined in a similar way.

[1] = Vero cells, MOI 0.1, harvested 48 hours post infection

SMILES: O=C(Nc1ccc(-c2nc3ccccc3s2)cc1)c1ccccc1F [Compound 21, N-(4-Benzothiazol-2-yl-phenyl)-2-fluoro-benzamide]
- EC50 [1]: 10 to 25 µM

SMILES: CC(=O)Oc1cccc(C(=O)Nc2ccc(-c3nc4ccccc4s3)cc2)c1 [Compound 30, Acetic acid 3-(4-benzothiazol-2-yl-phenylcarbamoyl)-phenyl ester]
- EC50 [1]: 10 to 25 µM

SMILES: COc1c(Cl)cc(C(=O)Nc2cc(-c3nc4ccccc4s3)ccc2Cl)cc1Cl [Compound 77, N-(5-Benzothiazol-2-yl-2-chloro-phenyl)-3,5-dichloro-4-methoxy-benzamide]
- EC50 [1]: > 25 µM

SMILES: COc1ccc(-c2nc3ccccc3s2)cc1NC(=O)c1ccc([N+](=O)[O-])cc1Cl [Compound 15, N-(5-Benzothiazol-2-yl-2-methoxy-phenyl)-2-chloro-4-nitro-benzamide]
- EC50 [1]: 1 to 10 µM

SMILES: CCCC(=O)Nc1ccc(C(=O)Nc2ccc(-c3nc4ccc(C)cc4s3)cc2)cc1 [Compound 37, 4-Butyrylamino-N-[4-(6-methyl-benzothiazol-2-yl)-phenyl]-benzamide]
- EC50 [1]: 10 to 25 µM

SMILES: Cc1ccccc1C(=O)Nc1cc(-c2nc3ccccc3s2)ccc1Cl [Compound 71, N-(5-Benzothiazol-2-yl-2-chloro-phenyl)-2-methyl-benzamide]
- EC50 [1]: > 25 µM

SMILES: O=C(Nc1ccc(-c2nc3ccccc3s2)c(Cl)c1)c1ccc(F)cc1 [Compound 123, N-(4-Benzothiazol-2-yl-3-chloro-phenyl)-4-fluoro-benzamide]
- EC50 [1]: > 25 µM

SMILES: O=C(Nc1ccccc1-c1nc2ccccc2s1)c1ccccc1F [Compound 93, N-(2-Benzothiazol-2-yl-phenyl)-2-fluoro-benzamide]
- EC50 [1]: > 25 µM

SMILES: O=C(Nc1ccc(O)c(-c2nc3ccccc3s2)c1)c1ccc(F)cc1 [Compound 61, N-(3-Benzothiazol-2-yl-4-hydroxy-phenyl)-4-fluoro-benzamide]
- EC50 [1]: > 25 µM

SMILES: Cc1cc(C)cc(C(=O)Nc2cc(-c3nc4ccccc4s3)ccc2Cl)c1 [Compound 122, N-(5-Benzothiazol-2-yl-2-chloro-phenyl)-3,5-dimethyl-benzamide]
- EC50 [1]: > 25 µM

SMILES: COc1ccc(Br)cc1C(=O)Nc1ccc(-c2nc3ccccc3s2)cc1 [Compound 28, N-(4-Benzothiazol-2-yl-phenyl)-5-bromo-2-methoxy-benzamide]
- EC50 [1]: 10 to 25 µM

SMILES: COc1c(C)cccc1C(=O)Nc1ccccc1-c1nc2ccccc2s1 [Compound 16, N-(2-Benzothiazol-2-yl-phenyl)-2-methoxy-3-methyl-benzamide]
- EC50 [1]: 1 to 10 µM

SMILES: Cc1ccc(-c2nc3ccccc3s2)cc1NC(=O)c1ccc2c(c1)OCCO2 [Compound 75, 2,3-Dihydro-benzo[1,4]dioxine-6-carboxylic acid (5-benzothiazol-2-yl-2-methyl-phenyl)-amide]
- EC50 [1]: > 25 µM

SMILES: O=C(Nc1ccc(O)c(-c2nc3ccccc3s2)c1)c1ccccc1 [Compound 56, N-(3-Benzothiazol-2-yl-4-hydroxy-phenyl)-benzamide]
- EC50 [1]: > 25 µM

SMILES: CCCOc1cccc(C(=O)Nc2cc(-c3nc4ccccc4s3)ccc2C)c1 [Compound 74, N-(5-Benzothiazol-2-yl-2-methyl-phenyl)-3-propoxy-benzamide]
- EC50 [1]: > 25 µM

SMILES: Cc1c(NC(=O)c2ccc([N+](=O)[O-])cc2Cl)cccc1-c1nc2ccccc2s1 [Compound 73, N-(3-Benzothiazol-2-yl-2-methyl-phenyl)-2-chloro-4-nitro-benzamide]
- EC50 [1]: > 25 µM

SMILES: CCOc1ccc(C(=O)Nc2cccc(-c3nc4ccccc4s3)c2C)cc1[N+](=O)O [Compound 25, N-(3-Benzothiazol-2-yl-2-methyl-phenyl)-4-ethoxy-3-nitro-benzamide]
- EC50 [1]: 10 to 25 µM

SMILES: COc1ccc(C(=O)Nc2ccc(-c3nc4ccccc4s3)cc2)cc1[N+](=O)[O-] [Compound 88, N-(4-Benzothiazol-2-yl-phenyl)-4-methoxy-3-nitro-benzamide]
- EC50 [1]: > 25 µM

SMILES: O=C(Nc1cccc(-c2nc3ccccc3s2)c1)c1cc(I)ccc1I [Compound 45, N-(3-Benzothiazol-2-yl-phenyl)-2,5-diiodo-benzamide]
- EC50 [1]: > 25 µM

SMILES: COc1ccc(C(=O)Nc2ccc(-c3nc4ccccc4s3)c(O)c2)cc1OC [Compound 27, N-(4-Benzothiazol-2-yl-3-hydroxy-phenyl)-3,4-dimethoxy-benzamide]
- EC50 [1]: 10 to 25 µM

SMILES: O=C(Nc1ccccc1-c1nc2ccccc2s1)c1cccc2c(Cl)cccc12 [Compound 109, 5-Chloro-naphthalene-1-carboxylic acid (2-benzothiazol-2-yl-phenyl)-amide]
- EC50 [1]: > 25 µM

SMILES: Cc1cc(C)cc(C(=O)Nc2ccc(-c3nc4ccccc4s3)cc2C)c1 [Compound 38, N-(4-Benzothiazol-2-yl-2-methyl-phenyl)-3,5-dimethyl-benzamide]
- EC50 [1]: 10 to 25 µM

SMILES: COc1c(Cl)cc(C(=O)Nc2ccccc2-c2nc3ccccc3s2)cc1Cl [Compound 108, N-(2-Benzothiazol-2-yl-phenyl)-3,5-dichloro-4-methoxy-benzamide]
- EC50 [1]: > 25 µM

SMILES: Cc1cccc(C(=O)Nc2ccc(-c3nc4ccccc4s3)c(Cl)c2)c1 [Compound 39, N-(4-Benzothiazol-2-yl-3-chloro-phenyl)-3-methyl-benzamide]
- EC50 [1]: 10 to 25 µM

SMILES: O=C(Nc1ccc(-c2nc3ccccc3s2)cc1)c1cccc(F)c1 [Compound 76, N-(4-Benzothiazol-2-yl-phenyl)-3-fluoro-benzamide]
- EC50 [1]: > 25 µM

SMILES: CCN(CC)S(=O)(=O)c1ccc(C(=O)Nc2ccccc2-c2nc3ccccc3s2)cc1 [Compound 94, N-(2-Benzothiazol-2-yl-phenyl)-4-diethylsulfamoyl-benzamide]
- EC50 [1]: > 25 µM

SMILES: O=C(Nc1ccc(-c2nc3ccccc3s2)c(O)c1)c1cccc(F)c1 [Compound 24, N-(4-Benzothiazol-2-yl-3-hydroxy-phenyl)-3-fluoro-benzamide]
- EC50 [1]: 10 to 25 µM

SMILES: COc1ccc(C(=O)Nc2ccc(-c3nc4ccccc4s3)c(O)c2)cc1[N+](=O)[O-] [Compound 60, N-(4-Benzothiazol-2-yl-3-hydroxy-phenyl)-4-methoxy-3-nitro-benzamide]
- EC50 [1]: > 25 µM

SMILES: O=C(Nc1ccccc1-c1nc2ccccc2s1)c1cccc(F)c1 [Compound 110, N-(2-Benzothiazol-2-yl-phenyl)-3-fluoro-benzamide]
- EC50 [1]: > 25 µM

SMILES: COc1cccc(C(=O)Nc2ccc(O)c(-c3nc4ccccc4s3)c2)c1 [Compound 58, N-(3-Benzothiazol-2-yl-4-hydroxy-phenyl)-3-methoxy-benzamide]
- EC50 [1]: > 25 µM

SMILES: Cc1ccc2nc(-c3ccc(NC(=O)c4ccccc4C(=O)O)cc3)sc2c1 [Compound 126, N-[4-(6-Methyl-benzothiazol-2-yl)-phenyl]-phthalamic acid]
- EC50 (Vero, 48 h): > 25 µM

SMILES: COc1ccc(C(=O)Nc2cccc(-c3nc4ccccc4s3)c2)cc1[N+](=O)[O-] [Compound 84, N-(3-Benzothiazol-2-yl-phenyl)-4-methoxy-3-nitro-benzamide]
- EC50 [1]: > 25 µM

SMILES: Cc1ccccc1C(=O)Nc1cccc(-c2nc3ccccc3s2)c1 [Compound 92, N-(3-Benzothiazol-2-yl-phenyl)-2-methyl-benzamide]
- EC50 [1]: > 25 µM

SMILES: O=C(Nc1ccc(-c2nc3ccccc3s2)c(O)c1)c1ccc(F)cc1 [Compound 22, N-(4-Benzothiazol-2-yl-3-hydroxy-phenyl)-4-fluoro-benzamide]
- EC50 [1]: 10 to 25 µM

SMILES: Cc1ccc(-c2nc3ccccc3s2)cc1NC(=O)c1ccccc1[N+](=O)O [Compound 68, N-(5-Benzothiazol-2-yl-2-methyl-phenyl)-2-nitro-benzamide]
- EC50 [1]: > 25 µM

SMILES: O=C(Nc1ccccc1-c1nc2ccccc2s1)c1cc(Br)ccc1Cl [Compound 102, N-(2-Benzothiazol-2-yl-phenyl)-5-bromo-2-chloro-benzamide]
- EC50 [1]: > 25 µM

SMILES: COc1ccccc1C(=O)Nc1cccc(-c2nc3ccccc3s2)c1 [Compound 4, N-(3-Benzothiazol-2-yl-phenyl)-2-methoxy-benzamide]
- EC50 [1]: < 1 µM

SMILES: COc1ccc(Cl)cc1C(=O)Nc1ccc(-c2nc3ccccc3s2)cc1 [Compound 31, N-(4-Benzothiazol-2-yl-phenyl)-5-chloro-2-methoxy-benzamide]
- EC50 [1]: 10 to 25 µM

SMILES: O=C(Nc1ccc(-c2nc3ccccc3s2)cc1)c1ccc(S(=O)(=O)N2CCCCC2)cc1 [Compound 17, N-(4-Benzothiazol-2-yl-phenyl)-4-(piperidine-1-sulfonyl)-benzamide]
- EC50 (Vero, 48 h): 10 to 25 µM

SMILES: Cc1ccc(C(=O)Nc2cc(-c3nc4ccccc4s3)ccc2C)c(C)c1 [Compound 117, N-(5-Benzothiazol-2-yl-2-methyl-phenyl)-2,4-dimethyl-benzamide]
- EC50 [1]: > 25 µM

SMILES: Cc1c(NC(=O)c2ccc([N+](=O)[O-])cc2)cccc1-c1nc2ccccc2s1 [Compound 65, N-(3-Benzothiazol-2-yl-2-methyl-phenyl)-4-nitro-benzamide]
- EC50 [1]: > 25 µM

SMILES: COc1ccc(C(=O)Nc2cccc(-c3nc4ccccc4s3)c2)cc1 [Compound 91, N-(3-Benzothiazol-2-yl-phenyl)-4-methoxy-benzamide]
- EC50 [1]: > 25 µM

SMILES: COc1cc(C(=O)Nc2cc(-c3nc4ccccc4s3)ccc2C)cc(OC)c1OC [Compound 51, N-(5-Benzothiazol-2-yl-2-methyl-phenyl)-3,4,5-trimethoxy-benzamide]
- EC50 [1]: > 25 µM

SMILES: O=C(Nc1cccc(-c2nc3ccccc3s2)c1)c1ccc(N2CCCC2)c([N+](=O)[O-])c1 [Compound 96, N-(3-Benzothiazol-2-yl-phenyl)-3-nitro-4-pyrrolidin-1-yl-benzamide]
- EC50 [1]: > 25 µM

SMILES: Cc1ccccc1C(=O)Nc1ccc(O)c(-c2nc3ccccc3s2)c1 [Compound 55, N-(3-Benzothiazol-2-yl-4-hydroxy-phenyl)-2-methyl-benzamide]
- EC50 [1]: > 25 µM

SMILES: O=C(Nc1ccccc1-c1nc2ccccc2s1)c1cccc(OCc2ccccc2)c1 [Compound 111, N-(2-Benzothiazol-2-yl-phenyl)-3-benzyloxy-benzamide]
- EC50 [1]: > 25 µM

SMILES: CCCCOc1cccc(C(=O)Nc2ccccc2-c2nc3ccccc3s2)c1 [Compound 106, N-(2-Benzothiazol-2-yl-phenyl)-3-butoxy-benzamide]
- EC50 [1]: > 25 µM
